# Measurements from patent US11214586B2, “Rhodamine triplet state complex and preparation and photodynamic therapy (PDT) study thereof” (SOUTHERN UNIVERSITY OF SCIENCE AND TECHNOLOGY, priority 2018, dated 2022).
# Key:
# [1] = Octanol-water partition coefficient
# Source text: Octanol-water partition coefficients (log Po/w)^[27] of bpy-Rho and M-Rho have been measured in order to study their lipophilic/hydrophilic characters. The higher is the log Po/w value associated with the dye, the higher is its lipophilic character.
# [2] = UV/Vis absorption spectra; assay type: physicochemical
# Protocol: (§1) The UV-vis absorption spectra were taken on Cary 60 UV-vis spectrophotometer. Steady-state emission spectra at room temperature were recorded on an Edinburgh Instruments FLS980 fluorescence spectrometer. Quartz cuvettes (path length=1 cm) were used in all spectrophotometric and fluorometric measurements. NMR spectra were recorded on a Bruker AVANCE 400 (^1H NMR for 400 MHz and ^13C NMR for 100 MHz) Fourier transform NMR spectrometer with chemical shifts reported relative to tetramethylsilane, (CH3)4Si. High-resolution MS spectra were performed on an Orbitrap Fusion Tribrid mass spectrometer. Elemental analyses of the newly synthesized complexes were preformed on a Elementar Vario EL Cube elemental analyzer at Sun Yat-sen University. The nanosecond time-resolved transient-difference absorption spectra were detected by using Edinburgh LP920 instruments (Edinburgh Instruments, U.K.). All solutions for transient absorption studies were degassed on a high-vacuum line in a two-compartment cell consisting of a 10-ml Pyrex bulb and a 1-cm or 4-mm path length quartz cuvette and sealed from the atmosphere by a Bibby Rotaflo HP6 Teflon stopper. The solutions were rigorously degassed with at least four successive freeze-pump-thaw cycles. Emission lifetime measurements were performed using a conventional laser system. The excitation source used was a 355-nm output (third harmonic) of a Spectra-Physics Quanta-Ray Q-switched GCR-150-10 pulsed Nd-YAG laser. Luminescence decay signals were detected by a Hamamatsu R928 PMT and recorded on a Tektronix Model TDS-620A (500 MHz, 2 GS/s) digital oscilloscope and analyzed using a program for exponential fits. Absolute quantum yields were measured by HAMAMATSU-C11347.
# MCF-7 cells [3] = test: Intracellular ROS, DCFH-DA assay; assay type: cell-based, human; conditions: 5 μM, 11-W lamp for 30 min
# Protocol: The MCF-7 cells were seeded in eight-well chambered coverglasses (lab-Tek, Nunc, USA) and six-well plate, incubated for 24 h in 5% CO2 at 37° C. Next, added to compounds (bpy-Rho and M-Rho) in medium make the final concentrations of 5 μM compounds. After irradiation treatment (11 W lamp 30 min), cells were promptly washed with PBS and incubated with 4 μg/ml 2′7′-dichloro-fluoreseindiacetate (DCFH-DA) for 30 min, and intracellular ROS generation was evaluated by flow cytometry and confocal microscopy.
# [4] = Steady-state emission spectra and absolute luminescence quantum yield; assay type: physicochemical
# Protocol: as §1
# tumor cells = test: Selective uptake by flow cytometry, tumor cells versus normal cells; assay type: cell-based; conditions: among bpy-Rho and M-Rho
# Protocol: (§2) Tumor cells (MCF-7/A 549/HepG2/4T1) and normal cells (MCF-10A/293T/L02/NIH-3T3) (1×10^4 cells) was cultured in six-well plate for 12 h. and then Cells were changed with a medium containing 5 μM complexes (rho-bpy, rho-bpy-Pt-ph, rho-bpy-Rh-ppy, rho-bpy-Re and rho-bpy-Ir-ppy). Cells were washed three times with PBS after 2 h of incubation, Then the cells were harvested, and the fluorescence intensity of complexes were recorded by flow cytometer.
# [5] = Singlet oxygen emission at about 1270 nm; assay type: physicochemical; conditions: in CH3CN
# Protocol: Singlet oxygen emission was detected by using FLS-980 spectrofluorometer. All of the compounds were dissolved in CH3CN. The absorbance at 532 nm was adjusted to be around 1.7 for all the compounds. Upon measurements, an 850 nm long-pass filter was inserted in between the sample and the detector to avoid many high-order diffraction from the visible emission.
# A549 = test: Selective uptake by flow cytometry; assay type: cell-based, human; conditions: A549, 5 μM, 2 h incubation
# Protocol: as §2
# MCF-7 = test: Selective uptake by flow cytometry; assay type: cell-based, human; conditions: MCF-7, 5 μM, 2 h incubation
# Protocol: as §2
# MCF-7 cells [6] = test: Phototoxicity, CCK-8 assay and calcein-AM/PI staining; assay type: cell-based, human; conditions: 11-W lamp
# Protocol: • 1. MCF-7 cells were seeded at 8×10^3-1×10^4 cells/well in 96 well plates then incubated for 24 h in 5% CO2 at 37° C. The stock solutions of the complexes(10 mM in DMSO) were diluted to appropriate concentrations with the complete medium and added to the cells to give final complexes concentrations (1, 2, 5, 10 μM). After incubation for 2 h, the well plate were irradiated with 11 W lamp 30 min. To achieve more uniform irradiation, the entire well plate was gently orbited on the shaker. After the irradiation, the cells were again incubated for 2 h, after which the cytotoxicity was determined by CCK8 assay and expressed as a percent of the controls (cells exposed to light in the absence of the complexes). • 2. The MCF-7 cells(500 cells/well) were seeded in eight-well chambered coverglasses (lab-Tek, Nunc, USA), and then incubated for 24 h in 5% CO2 at 37° C. Next, added to complexes(rho-bpy, rho-bpy-Pt-ph, rho-bpy-Rh-ppy, rho-bpy-Re and rho-bpy-Ir-ppy) in medium make the final concentrations of 5 μM complexes. After incubation for 2 h, the eight-well plate were irradiated with 11 W lamp 30 min. The flowing, fixed with 4% paraformaldehyde solution. After staining with calcein-AM and (Propidium iodide) PI, Leica TCS SP5 confocal laser scanning microscope (GER) was used to observe the viable and dead cells.
# 4T1 = test: Selective uptake by flow cytometry; assay type: cell-based, mouse; conditions: 4T1, 5 μM, 2 h incubation
# Protocol: as §2
# [7] = Singlet oxygen quantum yield; assay type: physicochemical
# Source text: The long-lived triplet excited state of rhodamine is anticipated to interact with molecular oxygen (^3O2) to form singlet oxygen (^1O2), which is useful for PDT applications. The ability of M-Rho to produce ^1O2 has been evaluated spectroscopically by the observation of ^1O2 emission at about 1270 nm (inset of FIG. 2b). Remarkable ^1O2 emission is observed in Ir-Rho, Re-Rho and Pt-Rho but not for Rh-Rho and bpy-Rho. By monitoring the diminution of the characteristic absorption of the ^1O2 scavenger 1,3-diphenylisobenzofuran (DPBF) at 410 nm, ^1O2 generation is also confirmed and the corresponding quantum yields (ϕΔ) for the complexes are determined (Table 1). […] The rate and quantum yield of ^1O2 generation are found to vary with different metal systems.
# Singlet oxygen quantum yield was determined by comparing the ^1O2 emission intensity of Rose Bengal and M-Rho.
structure (smiles),measurement,setting,value
CCN(CC)c1ccc2c(-c3ccnc(-c4cc(C)ccn4)c3)c3ccc(=[N+](CC)CC)cc-3oc2c1.F[P-](F)(F)(F)(F)F.F[P-](F)(F)(F)(F)F.c1ccc(-c2cccc[c]2[Ir+][c]2ccccc2-c2ccccn2)nc1 [Ir-Rho],log Po/w,[1],−0.39
same,λabs,"[2]; absorption maximum, in CH3CN",575 nm
same,ε × 10^4,"[2]; molar extinction coefficient at the absorption maxima, values × 10^4",8.75 M^−1 cm^−1
same,intracellular ROS generation,MCF-7 cells [3],highest ROS generation ability
same,λem,[4]; Conc. = 1.0 × 10^−6M in MeOH,629 nm
same,Φlum,[4]; absolute luminescence quantum yield measured by HAMAMATSU-C11347,0.014
same,"uptake efficiency and affinity to tumor cells, ranking",tumor cells,highest uptake efficiency and affinity
same,1O2 emission at about 1270 nm,[5],Remarkable
same,contrast index (CI),A549,higher than 2.5
same,contrast index (CI),MCF-7,higher than 2.5
same,cell death upon irradiation,MCF-7 cells [6]; concentration of 10 μM,Significant cell death
same,"PDT performance, ranking",MCF-7 cells [6]; among M-Rho,best PDT performance
same,contrast index (CI),4T1,higher than 2.5
same,"rate and quantum yield of 1O2 generation, ranking",[7]; among M-Rho,highest QY
same,ΦΔ (singlet oxygen quantum yield),[7]; relative to rose bengal (ΦΔ = 0.76),0.62
